Laboratory results from article PMC11420776 (RSC Advances, 2024).

Legend:
[1] = tested on: OVCAR-8 (ovarian cancer); test: NCI 60-cell one-dose antiproliferative screen; type: cell-based, human; conditions: one dose 10 μM
[2] = tested on: 786-0 (renal cancer); test: NCI 60-cell one-dose antiproliferative screen; type: cell-based, human; conditions: one dose 10 μM
[3] = tested on: TK-10 (renal cancer); test: NCI 60-cell one-dose antiproliferative screen; type: cell-based, human; conditions: one dose 10 μM
[4] = tested on: SNB-19 (CNS cancer); test: NCI 60-cell one-dose antiproliferative screen; type: cell-based, human; conditions: one dose 10 μM
[5] = tested on: CAKI-1 (renal cancer); test: NCI 60-cell one-dose antiproliferative screen; type: cell-based, human; conditions: one dose 10 μM
[6] = tested on: NCI-H23 (NSC lung cancer); test: NCI 60-cell one-dose antiproliferative screen; type: cell-based, human; conditions: one dose 10 μM
[7] = tested on: IGROV1 (ovarian cancer); test: NCI 60-cell one-dose antiproliferative screen; type: cell-based, human; conditions: one dose 10 μM
[8] = tested on: NCI-H460 (NSC lung cancer); test: NCI 60-cell one-dose antiproliferative screen; type: cell-based, human; conditions: one dose 10 μM
[9] = tested on: MDA-MB-468 (breast cancer); test: NCI 60-cell one-dose antiproliferative screen; type: cell-based, human; conditions: one dose 10 μM
[10] = tested on: RPMI-8226 (leukemia); test: NCI 60-cell one-dose antiproliferative screen; type: cell-based, human; conditions: one dose 10 μM
[11] = tested on: NCI-H322M (NSC lung cancer); test: NCI 60-cell one-dose antiproliferative screen; type: cell-based, human; conditions: one dose 10 μM
[12] = tested on: OVCAR-5 (ovarian cancer); test: NCI 60-cell one-dose antiproliferative screen; type: cell-based, human; conditions: one dose 10 μM
[13] = tested on: SF-539 (CNS cancer); test: NCI 60-cell one-dose antiproliferative screen; type: cell-based, human; conditions: one dose 10 μM
[14] = tested on: SK-OV-3 (ovarian cancer); test: NCI 60-cell one-dose antiproliferative screen; type: cell-based, human; conditions: one dose 10 μM
[15] = tested on: DU-145 (prostate cancer); test: NCI 60-cell one-dose antiproliferative screen; type: cell-based, human; conditions: one dose 10 μM
[16] = tested on: EKVX (NSC lung cancer); test: NCI 60-cell one-dose antiproliferative screen; type: cell-based, human; conditions: one dose 10 μM
[17] = tested on: KM12 (colon cancer); test: NCI 60-cell one-dose antiproliferative screen; type: cell-based, human; conditions: one dose 10 μM
[18] = tested on: OVCAR-3 (ovarian cancer); test: NCI 60-cell one-dose antiproliferative screen; type: cell-based, human; conditions: one dose 10 μM
[19] = tested on: HT29 (colon cancer); test: NCI 60-cell one-dose antiproliferative screen; type: cell-based, human; conditions: one dose 10 μM
[20] = tested on: OVCAR-4 (ovarian cancer); test: NCI 60-cell one-dose antiproliferative screen; type: cell-based, human; conditions: one dose 10 μM
[21] = tested on: UO-31 (renal cancer); test: NCI 60-cell one-dose antiproliferative screen; type: cell-based, human; conditions: one dose 10 μM
[22] = tested on: CCRF-CEM (leukemia); test: NCI 60-cell one-dose antiproliferative screen; type: cell-based, human; conditions: one dose 10 μM
[23] = tested on: HOP-92 (NSC lung cancer); test: NCI 60-cell one-dose antiproliferative screen; type: cell-based, human; conditions: one dose 10 μM
[24] = tested on: T-47D (breast cancer); test: NCI 60-cell one-dose antiproliferative screen; type: cell-based, human; conditions: one dose 10 μM
[25] = tested on: PC-3 (prostate cancer); test: NCI 60-cell one-dose antiproliferative screen; type: cell-based, human; conditions: one dose 10 μM
[26] = tested on: SK-MEL-2 (melanoma); test: NCI 60-cell one-dose antiproliferative screen; type: cell-based, human; conditions: one dose 10 μM
[27] = tested on: SF-295 (CNS cancer); test: NCI 60-cell one-dose antiproliferative screen; type: cell-based, human; conditions: one dose 10 μM
[28] = tested on: NCI-H226 (NSC lung cancer); test: NCI 60-cell one-dose antiproliferative screen; type: cell-based, human; conditions: one dose 10 μM
[29] = tested on: SK-MEL-28 (melanoma); test: NCI 60-cell one-dose antiproliferative screen; type: cell-based, human; conditions: one dose 10 μM
[30] = tested on: MDA-MB-231/ATCC (breast cancer); test: NCI 60-cell one-dose antiproliferative screen; type: cell-based, human; conditions: one dose 10 μM
[31] = tested on: M14 (melanoma); test: NCI 60-cell one-dose antiproliferative screen; type: cell-based, human; conditions: one dose 10 μM
[32] = tested on: HCT-116 (colon cancer); test: NCI 60-cell one-dose antiproliferative screen; type: cell-based, human; conditions: one dose 10 μM
[33] = tested on: SNB-75 (CNS cancer); test: NCI 60-cell one-dose antiproliferative screen; type: cell-based, human; conditions: one dose 10 μM
[34] = tested on: MDA-MB-435 (melanoma); test: NCI 60-cell one-dose antiproliferative screen; type: cell-based, human; conditions: one dose 10 μM
[35] = tested on: SW-620 (colon cancer); test: NCI 60-cell one-dose antiproliferative screen; type: cell-based, human; conditions: one dose 10 μM
[36] = tested on: UACC-257 (melanoma); test: NCI 60-cell one-dose antiproliferative screen; type: cell-based, human; conditions: one dose 10 μM
[37] = tested on: SN12C (renal cancer); test: NCI 60-cell one-dose antiproliferative screen; type: cell-based, human; conditions: one dose 10 μM
[38] = tested on: ACHN (renal cancer); test: NCI 60-cell one-dose antiproliferative screen; type: cell-based, human; conditions: one dose 10 μM
[39] = tested on: HCC-2998 (colon cancer); test: NCI 60-cell one-dose antiproliferative screen; type: cell-based, human; conditions: one dose 10 μM
[40] = tested on: SF-268 (CNS cancer); test: NCI 60-cell one-dose antiproliferative screen; type: cell-based, human; conditions: one dose 10 μM
[41] = tested on: RXF 393 (renal cancer); test: NCI 60-cell one-dose antiproliferative screen; type: cell-based, human; conditions: one dose 10 μM
[42] = tested on: MALME-3M (melanoma); test: NCI 60-cell one-dose antiproliferative screen; type: cell-based, human; conditions: one dose 10 μM
[43] = tested on: A498 (renal cancer); test: NCI 60-cell one-dose antiproliferative screen; type: cell-based, human; conditions: one dose 10 μM
[44] = tested on: U251 (CNS cancer); test: NCI 60-cell one-dose antiproliferative screen; type: cell-based, human; conditions: one dose 10 μM
[45] = tested on: UACC-62 (melanoma); test: NCI 60-cell one-dose antiproliferative screen; type: cell-based, human; conditions: one dose 10 μM
[46] = tested on: MCF7 (breast cancer); test: NCI 60-cell one-dose antiproliferative screen; type: cell-based, human; conditions: one dose 10 μM
[47] = tested on: HCT-15 (colon cancer); test: NCI 60-cell one-dose antiproliferative screen; type: cell-based, human; conditions: one dose 10 μM
[48] = tested on: 60 human tumor cell lines; test: NCI 60-cell one-dose antiproliferative screen, whole panel; type: cell-based
[49] = tested on: NCI-H522 (NSC lung cancer); test: NCI 60-cell one-dose antiproliferative screen; type: cell-based, human; conditions: one dose 10 μM
[50] = tested on: LOX IMIV (melanoma); test: NCI 60-cell one-dose antiproliferative screen; type: cell-based, human; conditions: one dose 10 μM
[51] = tested on: NCI/ADR-RES (ovarian cancer); test: NCI 60-cell one-dose antiproliferative screen; type: cell-based, human; conditions: one dose 10 μM
[52] = tested on: A549/ATCC (NSC lung cancer); test: NCI 60-cell one-dose antiproliferative screen; type: cell-based, human; conditions: one dose 10 μM
[53] = tested on: HOP-62 (NSC lung cancer); test: NCI 60-cell one-dose antiproliferative screen; type: cell-based, human; conditions: one dose 10 μM
[54] = tested on: HS 578T (breast cancer); test: NCI 60-cell one-dose antiproliferative screen; type: cell-based, human; conditions: one dose 10 μM
[55] = tested on: COLO-205 (colon cancer); test: NCI 60-cell one-dose antiproliferative screen; type: cell-based, human; conditions: one dose 10 μM

Cc1cc(C)n(-c2ccc3nnc(-c4ccccc4)n3n2)n1 [Compound 5, 6-(3,5-dimethyl-1H-pyrazol-1-yl)-3-phenyl-[1,2,4]triazolo[4,3-b]pyridazine]
GI% [1]: — (— GI% is below 15%)
GI% [2]: — (— GI% is below 15%)
GI% [3]: — (— GI% is below 15%)
GI% [4]: — (— GI% is below 15%)
GI% [5]: 25.28%
GI% [6]: — (— GI% is below 15%)
GI% [7]: — (— GI% is below 15%)
GI% [8]: — (— GI% is below 15%)
GI% [9]: — (— GI% is below 15%)
GI% [10]: — (— GI% is below 15%)
GI% [11]: — (— GI% is below 15%)
GI% [12]: — (— GI% is below 15%)
GI% [13]: — (— GI% is below 15%)
GI% [14]: — (— GI% is below 15%)
GI% [15]: — (— GI% is below 15%)
GI% [16]: — (— GI% is below 15%)
GI% [17]: — (— GI% is below 15%)
GI% [18]: — (— GI% is below 15%)
GI% [19]: — (— GI% is below 15%)
GI% [20]: — (— GI% is below 15%)
GI% [21]: >100%
GI% [22]: — (— GI% is below 15%)
GI% [23]: — (— GI% is below 15%)
GI% [24]: — (— GI% is below 15%)
GI% [25]: — (— GI% is below 15%)
GI% [26]: — (— GI% is below 15%)
GI% [27]: — (— GI% is below 15%)
GI% [28]: — (— GI% is below 15%)
GI% [29]: — (— GI% is below 15%)
GI% [30]: — (— GI% is below 15%)
GI% [31]: — (— GI% is below 15%)
GI% [32]: — (— GI% is below 15%)
GI% [33]: — (— GI% is below 15%)
GI% [34]: — (— GI% is below 15%)
GI% [35]: — (— GI% is below 15%)
GI% [36]: — (— GI% is below 15%)
GI% [37]: — (— GI% is below 15%)
GI% [38]: — (— GI% is below 15%)
GI% [39]: — (— GI% is below 15%)
GI% [40]: — (— GI% is below 15%)
GI% [41]: — (— GI% is below 15%)
GI% [42]: — (— GI% is below 15%)
GI% [43]: — (— GI% is below 15%)
GI% [44]: — (— GI% is below 15%)
GI% [45]: — (— GI% is below 15%)
GI% [46]: — (— GI% is below 15%)
GI% [47]: — (— GI% is below 15%)
inhibition at 10 µM ([48]; Homo sapiens, 60 cell, read-out: Mean inhibition (mean GI%)): < 0%
cytotoxic activity in words ([48]; NCI-60 panel, one dose 10 μM): demolished cytotoxicity
GI% [49]: 25.34%
GI% [50]: 22.70%
GI% [51]: 23.93%
GI% [52]: — (— GI% is below 15%)
GI% [53]: — (— GI% is below 15%)
GI% [54]: — (— GI% is below 15%)
GI% [55]: — (— GI% is below 15%)
